Results: patent publication US9624280B2 (JANSSEN BIOTECH, INC., priority 2013, dated 2017)
Entries after “also recorded” stand apart in the source; their conditions may differ. Like-named read-outs stand apart in the source and are kept apart here. No end group written: not given here.

Legend:
human Nav1.6 = target: T1, human Nav1.6 (Homo sapiens, UniProt Q9UQD0); assay type: cell-based
T1 construct: expressed in transfected cells

C57Bl/6 mice [1] = assay: CFA model of inflammatory pain, thermal hyperalgesia (Hargreaves test); assay type: in vivo; settings: for Thermal MPE %: CFA model, mice, mean±s.e.m. (n)
Protocol: (§1) Male C57Bl/6 mice (24-26 g), ordered from Charles River and housed individually, were used for this study.
This box consists of a chamber with a raised glass floor maintained at a constant temperature (27° C.). The thermal nociceptive stimulus originates from a projection bulb light beam below the glass surface. The light beam is aimed at the area between toris (center plantar). The “start” button will turn on the light and start the timer. Movements (such as a sudden withdrawal) of the stimulated paw will trigger the switch to turn off the light and stop the timer. […] If no movement occurs, the bulb will be turned off after 20 seconds (cutoff) to prevent tissue injury. The animals were allowed to habituate on the glass surface for 30-60 minutes before PWL measurement.
(§2) Percent maximum possible effect (MPE %)=(T1−T0)/(Tc−T0)×100%. T0: threshold on day0 (post-CFA, pre-pump); T1: threshold on day1 post pump implantation; Tc: cut-off of the test (20 s for the Hargreaves test and 2 g for the Von Frey test)
(§3) Animals were anesthetized with isoflurane (4% induction and 2% maintenance) and 20 μL of 100% Complete Freund's Adjuvant (CFA; Sigma-Aldrich; Saint Louis, Mo.) was injected into the center plantar area on one hind paw using a 27 gauge needle attached to a 50 μL Hamilton syringe. Carrageenan model: Animals were anesthetized with isoflurane (4% induction and 2% maintenance) and 25 μL of 2% A-carrageenan (Sigma-Aldrich; Saint Louis, Mo.) dissolved in normal saline was injected into the center plantar area on hind paws using an insulin syringe (BD; Franklin Lakes, N.J.).
(§4) Alzet micro-osmotic mini pumps (Durect Corporation Model 1003D and 2001D) were filled and primed per manufacturer's guide. Mice were anesthetized with isoflurane (5% induction; 2% maintenance). Their backs were shaved, wiped down with isopropyl alcohol and povidone iodine, and a small incision was made between the scapulae. Using a pair of forceps or hemostat, a small pocket was formed by spreading the subcutaneous connective tissues apart. The pump was inserted into the pocket with the flow moderator pointing away from the incision. The skin incision was then closed using 7 mm staples and the animals were allowed to recover in their home cages.
(§5) Data are represented as mean±s.e.m. Prism (Graphpad Software Inc., La Jolla, Calif.) was used for graphing and statistical analysis. For comparison of threshold values over time, a two-way ANOVA followed by Bonferroni's multiple comparison test was used with a significance level of p<0.05. Hotplate and MPE % data were analyzed by one-way ANOVA followed by Bonferroni's multiple comparison test.

C57Bl/6 mice [2] = assay: CFA model, tactile allodynia (Von Frey test); assay type: in vivo
Description: as §1
7 graded stimuli (von Frey filaments: 0.03, 0.07, 0.16, 0.4, 0.6, 1, 2 g; Stoelting, Wood Dale, Ill.) were used. Von Frey hairs were presented perpendicularly against the center plantar area (between toris) on a hindpaw. Sufficient force was applied to bend the filament slightly and held for 3 seconds. Per the Chaplan paper, a positive response can be either 1) a sharp withdrawal or 2) immediate flinching upon removal of the filament. See Chaplan et al for more details. Mice were acclimated to the wire mesh in the testing chamber for 30-60 minutes prior to testing.
as §2, §3
as §4, with “The pump was inserted into the pocket with the flow moderator pointing away from the incision. The skin incision was then closed using 7 mm staples and the animals were allowed to recover in their home cages.” left out
Data are represented as mean±s.e.m. […] Hotplate and MPE % data were analyzed by one-way ANOVA followed by Bonferroni's multiple comparison test.

C57Bl/6 mice [3] = assay: Hotplate test; assay type: in vivo
Protocol: as §1
Animals were placed on a 10″×10″ metal plate surrounded by 4 Plexiglas walls (15 inches high). The plate was maintained at a temperature of either 50 or 55° C. The response latency (time when the animal first flinches or licks its hind paw, jumps, or vocalizes) was measured and the animal removed from the plate. Animals showing no response were removed from the plate after 40 s (50° C.) or 20 s (55° C.) to prevent any possible tissue damage. This trial was repeated 2-5 times every 15-60 minutes in a day.
as §4, §5

C57Bl/6 mice [4] = settings: mouse, in vivo
human Nav1.5 = human Nav1.5 (Homo sapiens, UniProt Q14524)
rodent = settings: Schmalhofer et al. 2008; cited from earlier work
isolated nerves = settings: unless the perineural barrier is compromised; Hackel et al. 2012; cited from earlier work

human Nav1.5, sequence (Q14524 whole entry): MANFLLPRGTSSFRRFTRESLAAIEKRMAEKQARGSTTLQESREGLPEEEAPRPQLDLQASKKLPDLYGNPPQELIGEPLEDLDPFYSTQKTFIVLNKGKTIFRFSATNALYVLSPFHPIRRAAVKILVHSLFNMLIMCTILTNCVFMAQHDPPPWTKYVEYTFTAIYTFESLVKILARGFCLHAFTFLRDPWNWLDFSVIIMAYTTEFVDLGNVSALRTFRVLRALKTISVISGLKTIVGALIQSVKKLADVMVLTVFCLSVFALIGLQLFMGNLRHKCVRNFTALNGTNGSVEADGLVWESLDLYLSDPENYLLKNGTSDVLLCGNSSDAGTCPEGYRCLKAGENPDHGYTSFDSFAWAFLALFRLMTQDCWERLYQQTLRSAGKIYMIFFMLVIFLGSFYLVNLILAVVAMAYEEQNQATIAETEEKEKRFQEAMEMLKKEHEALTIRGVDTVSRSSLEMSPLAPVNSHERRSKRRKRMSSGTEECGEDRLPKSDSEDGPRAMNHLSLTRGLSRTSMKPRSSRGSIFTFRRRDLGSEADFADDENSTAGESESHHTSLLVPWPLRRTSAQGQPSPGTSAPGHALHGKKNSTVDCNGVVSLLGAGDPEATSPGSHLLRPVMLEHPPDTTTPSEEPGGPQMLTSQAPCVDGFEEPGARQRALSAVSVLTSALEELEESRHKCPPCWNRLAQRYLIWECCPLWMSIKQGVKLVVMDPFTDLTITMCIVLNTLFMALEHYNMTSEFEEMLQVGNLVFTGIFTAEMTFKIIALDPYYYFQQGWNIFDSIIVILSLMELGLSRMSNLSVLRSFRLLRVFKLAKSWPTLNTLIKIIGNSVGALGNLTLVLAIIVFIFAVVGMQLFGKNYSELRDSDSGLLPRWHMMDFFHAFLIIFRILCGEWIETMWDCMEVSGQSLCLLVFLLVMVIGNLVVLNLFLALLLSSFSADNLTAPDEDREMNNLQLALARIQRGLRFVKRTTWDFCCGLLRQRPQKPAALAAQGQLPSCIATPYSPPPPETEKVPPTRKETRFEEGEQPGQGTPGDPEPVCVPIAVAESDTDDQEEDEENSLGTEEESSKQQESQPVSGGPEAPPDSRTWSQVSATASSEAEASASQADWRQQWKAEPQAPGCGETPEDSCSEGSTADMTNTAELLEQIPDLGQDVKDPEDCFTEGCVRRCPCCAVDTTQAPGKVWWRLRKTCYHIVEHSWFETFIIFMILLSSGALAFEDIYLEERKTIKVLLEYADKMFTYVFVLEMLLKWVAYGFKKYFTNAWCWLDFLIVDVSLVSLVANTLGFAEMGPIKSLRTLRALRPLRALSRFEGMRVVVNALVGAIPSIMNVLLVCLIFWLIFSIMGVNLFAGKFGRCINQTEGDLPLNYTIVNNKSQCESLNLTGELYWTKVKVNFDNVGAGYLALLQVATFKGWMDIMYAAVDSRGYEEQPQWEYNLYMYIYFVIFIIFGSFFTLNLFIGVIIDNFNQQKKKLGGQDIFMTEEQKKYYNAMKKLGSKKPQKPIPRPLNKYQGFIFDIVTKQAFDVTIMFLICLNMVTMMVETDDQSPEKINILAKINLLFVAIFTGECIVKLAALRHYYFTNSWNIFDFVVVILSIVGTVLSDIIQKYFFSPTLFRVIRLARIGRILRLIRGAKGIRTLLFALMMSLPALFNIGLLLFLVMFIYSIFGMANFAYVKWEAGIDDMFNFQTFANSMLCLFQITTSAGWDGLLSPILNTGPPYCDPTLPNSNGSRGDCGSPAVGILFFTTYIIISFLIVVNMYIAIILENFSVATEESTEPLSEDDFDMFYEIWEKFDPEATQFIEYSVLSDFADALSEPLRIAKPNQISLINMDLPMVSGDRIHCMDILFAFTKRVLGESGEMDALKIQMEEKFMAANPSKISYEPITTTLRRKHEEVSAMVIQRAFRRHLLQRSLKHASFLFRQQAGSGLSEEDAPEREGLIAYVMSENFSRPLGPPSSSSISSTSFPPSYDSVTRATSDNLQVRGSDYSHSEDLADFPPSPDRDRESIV
T1 sequence (Q9UQD0 whole entry): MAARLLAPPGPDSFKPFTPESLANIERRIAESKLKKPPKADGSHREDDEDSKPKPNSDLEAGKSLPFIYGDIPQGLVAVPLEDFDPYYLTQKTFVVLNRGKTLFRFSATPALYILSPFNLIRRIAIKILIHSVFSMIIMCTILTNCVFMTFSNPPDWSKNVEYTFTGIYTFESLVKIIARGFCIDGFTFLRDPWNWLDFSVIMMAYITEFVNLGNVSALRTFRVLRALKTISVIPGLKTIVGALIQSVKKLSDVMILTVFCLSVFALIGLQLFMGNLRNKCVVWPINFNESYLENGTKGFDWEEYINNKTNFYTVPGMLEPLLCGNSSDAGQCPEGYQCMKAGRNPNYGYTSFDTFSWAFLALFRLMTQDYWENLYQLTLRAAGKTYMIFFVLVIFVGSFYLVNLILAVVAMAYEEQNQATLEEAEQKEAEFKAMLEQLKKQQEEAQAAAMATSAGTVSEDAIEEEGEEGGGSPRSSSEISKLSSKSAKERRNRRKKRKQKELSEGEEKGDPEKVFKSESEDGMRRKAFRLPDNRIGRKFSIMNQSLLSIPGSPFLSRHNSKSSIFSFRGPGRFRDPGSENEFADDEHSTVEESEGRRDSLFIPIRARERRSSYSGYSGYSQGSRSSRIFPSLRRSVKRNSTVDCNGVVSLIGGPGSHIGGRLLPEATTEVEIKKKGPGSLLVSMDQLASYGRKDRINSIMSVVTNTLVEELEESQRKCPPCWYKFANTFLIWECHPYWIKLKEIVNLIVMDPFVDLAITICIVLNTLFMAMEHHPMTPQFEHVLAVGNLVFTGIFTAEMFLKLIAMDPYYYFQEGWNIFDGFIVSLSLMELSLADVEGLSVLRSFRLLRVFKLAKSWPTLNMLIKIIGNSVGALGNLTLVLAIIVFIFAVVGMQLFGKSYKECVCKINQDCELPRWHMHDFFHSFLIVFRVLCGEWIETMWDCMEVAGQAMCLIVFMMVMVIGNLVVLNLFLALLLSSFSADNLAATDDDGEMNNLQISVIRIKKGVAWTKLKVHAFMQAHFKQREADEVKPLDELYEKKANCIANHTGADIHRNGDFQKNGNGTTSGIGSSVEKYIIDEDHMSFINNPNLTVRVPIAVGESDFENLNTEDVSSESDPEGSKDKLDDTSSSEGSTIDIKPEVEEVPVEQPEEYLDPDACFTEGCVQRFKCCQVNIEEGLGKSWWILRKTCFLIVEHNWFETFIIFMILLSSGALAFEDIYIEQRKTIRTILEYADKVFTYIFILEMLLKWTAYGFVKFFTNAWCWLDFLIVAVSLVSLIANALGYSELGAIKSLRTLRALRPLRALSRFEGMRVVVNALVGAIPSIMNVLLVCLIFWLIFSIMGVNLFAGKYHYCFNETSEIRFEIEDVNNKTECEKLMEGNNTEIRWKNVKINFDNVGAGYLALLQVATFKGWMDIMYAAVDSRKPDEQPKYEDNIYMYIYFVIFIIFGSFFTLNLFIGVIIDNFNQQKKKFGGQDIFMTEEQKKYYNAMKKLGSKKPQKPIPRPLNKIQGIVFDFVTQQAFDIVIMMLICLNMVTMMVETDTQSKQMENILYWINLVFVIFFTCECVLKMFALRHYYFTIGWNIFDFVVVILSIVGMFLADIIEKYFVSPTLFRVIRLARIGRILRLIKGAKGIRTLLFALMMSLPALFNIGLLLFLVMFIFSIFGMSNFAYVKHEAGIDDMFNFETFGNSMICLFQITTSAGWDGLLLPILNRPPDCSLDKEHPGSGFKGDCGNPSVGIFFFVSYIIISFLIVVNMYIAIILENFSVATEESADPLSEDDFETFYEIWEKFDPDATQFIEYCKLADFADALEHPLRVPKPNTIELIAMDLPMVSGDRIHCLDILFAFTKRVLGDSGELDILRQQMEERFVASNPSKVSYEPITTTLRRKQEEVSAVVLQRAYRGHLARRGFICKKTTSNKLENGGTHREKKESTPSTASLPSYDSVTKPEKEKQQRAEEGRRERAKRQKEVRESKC

Substance: GPQCQKWMQTCDAERKCCEGFVCRLWCKKKLW-OH (cysteine pairing not given here) [NV1D2775]
- selectivity for Nav1.7 compared to recombinant Protoxin-II (human Nav1.6): improved selectivity
- thermal latencies after peptide administration (C57Bl/6 mice [1]; 1824 μg/day, cut-off 20 s): close to the cut-off
- Thermal MPE % (C57Bl/6 mice [1]; 228 μg/day/mouse by subcutaneous osmotic mini-pump): 35 ± 8 (8) %
- Thermal MPE % (C57Bl/6 mice [1]; 1824 μg/day/mouse by subcutaneous osmotic mini-pump): 85 ± 6 %
- efficacy in the CFA model (C57Bl/6 mice [1]; mouse, in vivo): strong efficacy
- time at which anti-hyperalgesic effect was first seen, post-pump implantation (C57Bl/6 mice [1]; mouse, in vivo): 4 h
- time at which effect reached the maximum, thermal test (C57Bl/6 mice [1]; mouse, in vivo): 8 h
- time by which thermal latency returned to control level post pump implantation (C57Bl/6 mice [1]; mouse, in vivo): ≤ 48 h
- CFA-induced tactile allodynia (C57Bl/6 mice [2]; 1824 μg/day): reversed
- time at which effect reached the maximum, tactile test (C57Bl/6 mice [2]; mouse, in vivo): 8 h
- time by which tactile threshold returned to control level post pump implantation (C57Bl/6 mice [2]; mouse, in vivo): ≤ 48 h
- hotplate thermal latency compared to the PBS control (C57Bl/6 mice [3]; 228 μg/day): modest yet significant increase
- hotplate latencies at 50 and 55° C. (C57Bl/6 mice [3]; 1824 μg/day): near cut-off
- efficacy in the hotplate test (C57Bl/6 mice [3]; mouse, in vivo, listed as NV1D2775-OH): strong, dose-dependent efficacy; also recorded: significant analgesia
- analgesia, thermal withdrawal latency on day1 post-pump (C57Bl/6 mice [4]): significant analgesia
- protection from carrageenan-induced thermal hyperalgesia (C57Bl/6 mice [4]): fully protected

Substance: GPYCQKWMWTCDSERKCCEGMVCRLWCKKKLW-COOH [NV1D12, reference compound]
- IC50 (human Nav1.6; read-out: IC50 for Nav1.6, QPatch electrophysiology assay): ~62 nM
- IC50 (human Nav1.5): > 1000 nM

Substance: GPSCQKWMQTCDAERKCCEGFVCRLWCKKKLW-OH (cysteine pairing not given here) [NV1D2773]
- IC50 (human Nav1.5; human, pH 7.4): > 3000 nM

Substance: YCQKWMWTCDSERKCCEGMVCRLWCKKKLW-COOH [wild type Protoxin-II]
- efficacy in rodent models of acute and inflammatory pain (rodent): non-efficacious
- inhibition of action potential firing in isolated nerves (isolated nerves): inability
